Measurements published in patent US20240425478A1, “CYCLOPENTYLPYRAZOLE CDK2 INHIBITORS” (Genentech, Inc., priority 2021, published 2024).
Read-outs that look alike come from different tables or passages of the source.

What was measured:
[1] = biological target: T1, Cyclin Dependent Kinase 1/Cyclin A2 (CDK1-cycA2) (Homo sapiens, UniProt P06493); experiment: CDK1-cycA2 TR-FRET (Lance) enzyme assay; assay type: biochemical; conditions: for Ki: Table O, enzymatic assay; for FS CDK1/CDK2: fold selectivity, enzymatic Ki ratio
T1 construct: purchased ProQinase 0134-0054-1
Procedure, shortened: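 Human CDK1/cyclin A2 pre-incubated 30 min with compound dose responses in 50 mM HEPES pH 7.5, 10 mM MgCl2, 2 mM TCEP, 0.05% BGG, 0.01% Brij 35. Reaction quenched with EDTA (15 mM final); TR-FRET readout using Eu-anti-phospho-4E-BP1, acceptor/donor ratio. Inhibition constants from Morrison equation.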

[2] = biological target: T2, Cyclin Dependent Kinase 4/Cyclin D3 (CDK4-cycD3) (Homo sapiens, UniProt P11802); experiment: CDK4-cycD3 TR-FRET (LANCE) enzyme assay; assay type: biochemical; conditions: for Ki: Table O, enzymatic assay; for FS CDK4/CDK2: fold selectivity, enzymatic Ki ratio
T2 construct: purchased Carna Biosciences 04-105
Procedure, shortened: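 Compound dose responses pre-incubated 30 min with enzyme mix in 50 mM HEPES pH 7.5, 10 mM MgCl2, 2 mM TCEP, 0.05% BGG, 0.01% Brij 35. Reaction quenched with EDTA (15 mM final); Eu-anti-phospho-4E-BP1 TR-FRET detection, acceptor/donor ratio. Ki derived by Morrison equation.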

SKOV-3 (ATCC HTB-77) = experiment: SKOV-3 EdU incorporation cell proliferation assay (CDK4/6-dependent); assay type: cell-based; conditions: for IC50: Homo sapiens, SK-OV-3, Table O, cellular assay, read-out: CDK4/6 SKOV-3 IC50; for FS SKOV-3/OVISE: fold selectivity, cellular IC50 ratio
Procedure, shortened: (§1)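 Cells in RPMI/10% FBS dosed with compound (0.5% DMSO final) for 16 h at 37 °C, 5% CO2, then EdU 0.5 μM final for 8 h before fixation and imaging. IC50 from 4-parameter logistic fit of EdU-positive cell fraction versus dose.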

HCT116 cells = experiment: p-H3 HCT-116 mitotic release cell proliferation assay (cellular CDK1); assay type: cell-based; conditions: Homo sapiens, HCT-116; Table O, cellular assay; read-out: CDK1 p-H3 IC50
Procedure, shortened: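 HCT116 cells arrested 16 h with 500 nM nocodazole, then exposed to compound for 4 h at 37 °C (0.1% DMSO). Lysates read by HTRF/FRET with donor and acceptor phospho-Histone H3 (Ser10) antibodies, ≥2 h at room temperature; CDK1 inhibition seen as loss of p-H3 on mitotic release.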

[3] = biological target: T3, Cyclin Dependent Kinase 2/Cyclin E1 (CDK2-cycE1) (Homo sapiens, UniProt P24941); experiment: CDK2-cycE1 TR-FRET (LANCE) enzyme assay; assay type: biochemical; conditions: for FS CDK1/CDK2 / FS CDK4/CDK2: fold selectivity; for FS CDK1/CDK2: enzymatic CDK1 Ki over CDK2 Ki; for FS CDK4/CDK2: enzymatic CDK4 Ki over CDK2 Ki
T3 construct: purchased ProQinase 0050-0055-1
Procedure, shortened: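 Compound dose responses pre-incubated 30 min with CDK2-cycE1 in 50 mM HEPES pH 7.5, 10 mM MgCl2, 2 mM TCEP, 0.05% BGG, 0.01% Brij 35. Reaction quenched with EDTA (15 mM final), phospho-MBP detected by Eu-anti-phospho-MBP TR-FRET (acceptor/donor ratio). Inhibition constants from Morrison equation.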

[4] = test system: OVISE (JCRB1043, CCNE1-amplified); experiment: OVISE EdU incorporation cell proliferation assay (CDK2-dependent); assay type: cell-based; conditions: for IC50 / FS SKOV-3/OVISE / FS p-H3/OVISE: Table O; for IC50: cellular assay, read-out: CDK2 OVISE IC50; for FS SKOV-3/OVISE / FS p-H3/OVISE: fold selectivity; for FS SKOV-3/OVISE: cellular SKOV-3 IC50 over OVISE IC50; for FS p-H3/OVISE: cellular p-H3 IC50 over OVISE IC50
Procedure, shortened: as §1

[5] = Table O, enzymatic assay, read-out: CDK2 Ki
[6] = read-out: CDK2 activity / potency (enzymatic assay)

T1 sequence (P06493 whole entry): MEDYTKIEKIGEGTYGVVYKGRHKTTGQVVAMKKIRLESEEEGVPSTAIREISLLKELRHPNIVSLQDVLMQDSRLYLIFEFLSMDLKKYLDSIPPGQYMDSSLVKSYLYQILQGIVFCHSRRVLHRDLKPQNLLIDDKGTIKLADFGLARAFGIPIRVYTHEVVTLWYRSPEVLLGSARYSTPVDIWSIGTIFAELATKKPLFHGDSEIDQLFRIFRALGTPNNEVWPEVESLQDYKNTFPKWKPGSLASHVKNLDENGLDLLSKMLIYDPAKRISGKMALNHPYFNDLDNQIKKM
T1 sequence (P20248 whole entry partner): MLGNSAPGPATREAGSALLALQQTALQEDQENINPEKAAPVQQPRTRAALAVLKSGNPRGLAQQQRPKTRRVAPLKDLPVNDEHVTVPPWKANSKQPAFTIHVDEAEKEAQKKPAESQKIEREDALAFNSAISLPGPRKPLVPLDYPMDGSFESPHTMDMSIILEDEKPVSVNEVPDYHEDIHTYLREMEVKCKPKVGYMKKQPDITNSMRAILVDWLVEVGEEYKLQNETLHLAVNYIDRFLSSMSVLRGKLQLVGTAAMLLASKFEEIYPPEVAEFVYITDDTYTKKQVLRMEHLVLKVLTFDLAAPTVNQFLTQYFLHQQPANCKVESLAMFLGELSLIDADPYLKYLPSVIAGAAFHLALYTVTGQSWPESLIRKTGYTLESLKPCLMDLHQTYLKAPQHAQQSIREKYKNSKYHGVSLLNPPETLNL
T2 sequence (P11802 whole entry): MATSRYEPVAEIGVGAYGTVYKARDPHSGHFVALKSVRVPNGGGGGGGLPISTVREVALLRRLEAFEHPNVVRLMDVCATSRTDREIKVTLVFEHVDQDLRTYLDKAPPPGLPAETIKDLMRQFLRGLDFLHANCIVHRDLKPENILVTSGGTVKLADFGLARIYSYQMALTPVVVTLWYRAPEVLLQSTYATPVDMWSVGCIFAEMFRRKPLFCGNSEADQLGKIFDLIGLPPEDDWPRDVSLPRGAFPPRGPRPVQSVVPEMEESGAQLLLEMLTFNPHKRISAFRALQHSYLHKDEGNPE
T2 sequence (P30281 whole entry partner): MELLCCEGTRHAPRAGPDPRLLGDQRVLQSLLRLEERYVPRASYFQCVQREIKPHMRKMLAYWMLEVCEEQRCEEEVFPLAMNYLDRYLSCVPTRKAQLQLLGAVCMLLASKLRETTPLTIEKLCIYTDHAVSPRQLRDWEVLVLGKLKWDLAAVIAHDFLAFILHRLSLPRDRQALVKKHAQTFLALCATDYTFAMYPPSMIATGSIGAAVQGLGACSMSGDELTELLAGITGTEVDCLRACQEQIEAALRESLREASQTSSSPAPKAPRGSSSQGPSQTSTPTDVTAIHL

Compound | Ki [1] [nM] | Ki [2] [nM] | IC50 (SKOV-3 (ATCC HTB-77)) [µM] | IC50 (HCT116 cells) [nM] | Ki [3, 5] [nM] | FS CDK1/CDK2 ([3]; Table O) | FS CDK4/CDK2 ([3]; Table O) | IC50 [4] [nM] | FS SKOV-3/OVISE [4] | FS p-H3/OVISE [4] | other results
Cn1nc(Nc2cc([C@H]3CC[C@@H](OC(=O)NC45CC(C4)C5)C3)[nH]n2)ccc1=O [Example 6, (1R,3S)-3-(5-((1-methyl-6-oxo-1,6-dihydropyridazin-3-yl)amino)-1H-pyrazol-3-yl)cyclopentyl bicyclo[1.1.1]pentan-1-ylcarbamate] | 21 | 20 | 1.3 | 23 | < 0.1 | >33 | >320 | 16 | 81 | 1.4 | Ki [3, 6]: ≤ 1 nM
CN(C(=O)O[C@@H]1CC[C@H](c2cc(Nc3ccc(=O)n(C)n3)n[nH]2)C1)C(C)(C)C [Example 6B, (1R,3S)-3-(3-((1-methyl-6-oxo-1,6-dihydropyridazin-3-yl)amino)-1H-pyrazol-5-yl)cyclopentyl tert-butyl(methyl)carbamate] | 0.78 | 7.4 | 0.39 | 8.7 | < 0.1 | >12 | >120 | 27 | 14 | 0.32 | –
Cn1nc(Nc2cc([C@H]3CC[C@@H](OC(=O)NC(C)(C)C)C3)[nH]n2)ccc1=O [Example 6C, (1R,3S)-3-(3-((1-methyl-6-oxo-1,6-dihydropyridazin-3-yl)amino)-1H-pyrazol-5-yl)cyclopentyl tert-butylcarbamate] | 3.6 | 45 | 1.5 | 26 | < 0.1 | >47 | >584 | 30 | 50 | 0.087 | FS CDK1/CDK2 increased over Comparator D, (+) sign ([1]; Table R): (+); FS CDK1/CDK2 ([1]; Table R): > 47; FS CDK1/CDK2 increased over Comparator E, (+) sign ([1]; Table S): (+); FS CDK1/CDK2 ([1]; Table S): > 47; FS CDK4/CDK2 increased over Comparator D, (+) sign ([2]; Table R): (+); FS CDK4/CDK2 ([2]; Table R): > 584; FS CDK4/CDK2 increased over Comparator E, (+) sign ([2]; Table S): (+); FS CDK4/CDK2 ([2]; Table S): > 584; selectivity for CDK2 over CDK4 compared with Comparator E (SKOV-3 (ATCC HTB-77); SKOV-3/OVISE fold-selectivity cellular assay data): increase in selectivity for CDK2 over CDK4; FS SKOV-3/OVISE increased over Comparator D, (+) sign (SKOV-3 (ATCC HTB-77); Table R): (+); FS SKOV-3/OVISE (SKOV-3 (ATCC HTB-77); Table R): 50; FS SKOV-3/OVISE increased over Comparator E, (+) sign (SKOV-3 (ATCC HTB-77); Table S): (+); FS SKOV-3/OVISE (SKOV-3 (ATCC HTB-77); Table S): 50; Ki ([3]; Table R, enzymatic assay, read-out: CDK2 Ki): < 0.1 nM; CDK2 Ki fold change in potency versus Comparator D ([3]; Table R, in brackets after CDK2 Ki): 27 fold; Ki ([3]; Table S, enzymatic assay, read-out: CDK2 Ki): < 0.1 nM; CDK2 Ki fold change in potency versus Comparator E ([3]; Table S, in brackets after CDK2 Ki): 5.2 fold; CDK2 cell potency compared with Comparator E ([4]; CDK2 OVISE cellular assay data): more potent CDK2 cell inhibitors compared to Comparator E; CDK2 OVISE IC50 fold change in potency versus Comparator D ([4]; Table R, in brackets after OVISE IC50): 127 fold; CDK2 OVISE IC50 fold change in potency versus Comparator E ([4]; Table S, in brackets after OVISE IC50): 5.7 fold
CC(CC(F)(F)F)NC(=O)O[C@@H]1CC[C@H](c2cc(Nc3ccc(=O)n(C)n3)n[nH]2)C1 (stereo partly drawn) [Example 6D, (1R,3S)-3-(3-((1-methyl-6-oxo-1,6-dihydropyridazin-3-yl)amino)-1H-pyrazol-5-yl)cyclopentyl (4,4,4-trifluorobutan-2-yl)carbamate] | 3.6 | 61 | 4.3 | 72 | 0.21 | 17 | 290 | 77 | 56 | 0.94 | –
C[C@H](NC(=O)O[C@@H]1CC[C@H](c2cc(Nc3ccc(=O)n(C)n3)n[nH]2)C1)c1ccccc1 [Example 6E, (1R,3S)-3-(3-((1-methyl-6-oxo-1,6-dihydropyridazin-3-yl)amino)-1H-pyrazol-5-yl)cyclopentyl ((S)-1-phenylethyl)carbamate] | 48 | 18 | 15 | 290 | 2.9 | 17 | 6.2 | 320 | 47 | 0.91 | –
Cc1nc(C(=O)N(C)C)ccc1Nc1cc([C@H]2CC[C@@H](OC(=O)NC3(C)CC3)C2)[nH]n1 [Example 7, (1R,3S)-3-(3-((6-(dimethylcarbamoyl)-2-methylpyridin-3-yl)amino)-1H-pyrazol-5-yl)cyclopentyl (1-methylcyclopropyl)carbamate] | 23 | 38 | 3.8 | 50 | 0.36 | 64 | 110 | 58 | 66 | 0.86 | Ki [3, 6]: ≤ 1 nM
Cc1nccnc1Nc1cc([C@H]2CC[C@@H](OC(=O)NC3(C)COC3)C2)[nH]n1 [Example 8B, (1R,3S)-3-(3-((3-methylpyrazin-2-yl)amino)-1H-pyrazol-5-yl)cyclopentyl (3-methyloxetan-3-yl)carbamate] | 52 | 140 | 3 | 140 | 0.66 | 79 | 212 | 87 | 34 | 1.6 | –
Cc1ncccc1Nc1cc([C@H]2CC[C@@H](OC(=O)NC3(C)COC3)C2)[nH]n1 [Example 8] | 160 | 660 | 15 | 560 | 3.1 | 52 | 213 | 320 | 47 | 1.8 | –
Cc1cc(Nc2cc([C@H]3CC[C@@H](OC(=O)NC45CC(C4)C5)C3)[nH]n2)ccn1 [Example 9, (1R,3S)-3-(3-((2-methylpyridin-4-yl)amino)-1H-pyrazol-5-yl)cyclopentyl bicyclo[1.1.1]pentan-1-ylcarbamate] | 61 | 150 | 3.3 | 210 | 1.9 | 32 | 79 | 170 | 19 | 1.2 | –
Cn1cnc(Nc2cc([C@H]3CC[C@@H](OC(=O)NC45CC(C4)C5)C3)[nH]n2)cc1=O [Example 9B, (1R,3S)-3-(3-((1-methyl-6-oxo-1,6-dihydropyrimidin-4-yl)amino)-1H-pyrazol-5-yl)cyclopentyl bicyclo[1.1.1]pentan-1-ylcarbamate] | 12 | 21 | 0.47 | 46 | 0.35 | 34 | 60 | 33 | 14 | 1.4 | –
CNC(=O)c1cc(C)c(Nc2cc([C@H]3CC[C@@H](OC(=O)NC45CC(C4)C5)C3)[nH]n2)cn1 [Example 9C, (1R,3S)-3-(3-((4-methyl-6-(methylcarbamoyl)pyridin-3-yl)amino)-1H-pyrazol-5-yl)cyclopentyl bicyclo[1.1.1]pentan-1-ylcarbamate] | 190 | 400 | 9.1 | 180 | 2 | 95 | 200 | 180 | 51 | 1.0 | –
CNC(=O)c1cnc(Nc2cc([C@H]3CC[C@@H](OC(=O)NC45CC(C4)C5)C3)[nH]n2)c(C)n1 [Example 9E, (1R,3S)-3-(3-((3-methyl-5-(methylcarbamoyl)pyrazin-2-yl)amino)-1H-pyrazol-5-yl)cyclopentyl bicyclo[1.1.1]pentan-1-ylcarbamate] | 69 | 190 | 1 | 220 | 2.1 | 33 | 90 | 200 | 5 | 1.0 | –
